Laboratory results: publication PMC10952342 (2023)

Key:
[1] = test system: HTelo (DNA, G4) AGGGTTAGGGTTAGGGTTAGGG; assay: emission titration (580 nm); details: lithium cacodylate pH 7.3
[2] = test system: HTG4 (DNA, G4) TTGGGTTAGGGTTAGGGTTAGGGA; assay: emission titration (580 nm); details: K+ 100 mM, lithium cacodylate pH 7.3
[3] = test system: c-Myc (DNA, G4) TGAGGGTGGGTAGGGTGGGTAA; assay: emission titration (580 nm); details: K+ 100 mM, lithium cacodylate pH 7.3
[4] = test system: HTelo (DNA, G4) AGGGTTAGGGTTAGGGTTAGGG; assay: CD melting (295 nm); details: Na+ 100 mM; 10 mM lithium cacodylate; 5 μM DNA, 10 μM compound
[5] = test system: c-Myc (DNA, G4) TGAGGGTGGGTAGGGTGGGTAA; assay: CD melting (265 nm); details: K+ 1 mM; 10 mM lithium cacodylate; 5 μM DNA, 10 μM compound

Compound | Ka ([1]; K+ 100 mM) | Ka ([1]; Na+ 100 mM) | Ka [2] | Ka [3] | Ka ([1]; K+ 100 mM, 1 μM complex) | Ka ([1]; Na+ 100 mM, 1 μM complex) | Ka ([2]; 1 μM complex) | Ka ([3]; 1 μM complex) | ΔTm [4] | ΔTm [5]
CN(C)CCOc1c[c-]c(-c2cccc(-c3ccccn3)n2)cc1.OCC[S-].[Pt+2] | 12.5 ± 0.30 x 10^5 M^-1 | 3.5 ± 1.01 x 10^5 M^-1 | 22.04 ± 9.23 x 10^5 M^-1 | 14.43 ± 7.18 x 10^5 M^-1 |  |  |  |  |  | 
[Cl-].[Pt+2].[c-]1cc(OCCN2CCOCC2)ccc1-c1cccc(-c2ccccn2)n1 | 2.95 ± 0.34 x 10^5 M^-1 | 1.47 ± 0.08 x 10^5 M^-1 | 3.55 ± 0.92 x 10^5 M^-1 | 13.68 ± 1.56 x 10^5 M^-1 |  |  |  |  |  | 
OCC[S-].[Pt+2].[c-]1cc(OCCN2CCOCC2)ccc1-c1cccc(-c2ccccn2)n1 | 3.92 ± 0.13 x 10^5 M^-1 | 1.46 ± 0.05 x 10^5 M^-1 | 4.45 ± 0.58 x 10^5 M^-1 | 6.09 ± 0.91 x 10^5 M^-1 |  |  |  |  |  | 
[Cl-].[Pt+2].[c-]1cc(OCCN2CCCCC2)ccc1-c1cccc(-c2ccccn2)n1 |  |  |  |  | 11.77 ± 1.69 x 10^5 M^-1 | 5.06 ± 0.59 x 10^5 M^-1 | 19.18 ± 3.60 x 10^5 M^-1 | 21.65 ± 0.64 x 10^5 M^-1 | 2.8 °C | 28.3 °C
OCC[S-].[Pt+2].[c-]1cc(OCCN2CCCCC2)ccc1-c1cccc(-c2ccccn2)n1 | 4.85 ± 0.66 x 10^5 M^-1 | 4.5 ± 1.54 x 10^5 M^-1 | 16.35 ± 2.30 x 10^5 M^-1 | 15.04 ± 1.18 x 10^5 M^-1 |  |  |  |  |  | 
CN(C)CCOc1c[c-]c(-c2cccc(-c3ccccn3)n2)cc1.[Cl-].[Pt+2] | 10.45 ± 1.13 x 10^5 M^-1 | 6.22 ± 0.34 x 10^5 M^-1 | 14.89 ± 4.37 x 10^5 M^-1 | 17.61 ± 2.87 x 10^5 M^-1 |  |  |  |  | 3.6 °C | 30 °C
